Measured values from patent US9255263B2, “Antithrombotic compounds” (King's College London, priority 2009, dated 2016).
Several values for one entry are separate records, joined by “and”; a condition that tells them apart may be missing. Equal values may be shown once. Where no end group is shown, it is not given here. The star is where a group is joined. Myristoyl = CCCCCCCCCCCCCC(=O)*

Columns and labels:
[1] = tested on: Human CD34-derived progenitor cells; experiment: Human plasma recalcification (clotting) assay with prothrombotic cells; type: cell-based; conditions: for effect on cell-promoted fibrin clot formation: cells pre-incubated with agent and washed
Method: Human plasma preparation: Human blood was drawn from volunteers with heparin and human plasma prepared by centrifugation, before storage at −80° C.
Human plasma recalcification assay (based on Lin et al Transplantation, 86(5):702-9, 2008): Human CD34-derived progenitor cells were suspended in 50 μl Tris-buffered saline and mixed with 100 μl of normal human plasma (Sigma) in glass tubes (Corning, Corning, N.Y.). Ten (10) μl of 250 mM CaCl2 in Tris-buffered saline combined with 90 μl phospholipids (Diagnostic Reagents, Oxford, UK) were added, and the tube incubated at 37° C. in a water bath—the time for a fibrin clot to form was determined in triplicate, during which time the tubes were continuously agitated by tilting. In some assays, cells were incubated with 200 uL of Compound 1 (50 uM) for 30 min at 4° C. before washing twice and inclusion in the clotting assay.

[2] = tested on: DA kidney graft in pre-sensitised Lewis recipients; type: in vivo, rat
From the text: Rat used were inbred male DA (RT1^a) and Lewis (RT1^i) at the age of 7-8 weeks and a weight of 150-200 g. The model of hyperimmune rejection was based on renal allografts from MHC Class I disparate donors and recipients with modifications to enable life-sustaining renal transplantation. Prior to transplantation, Lewis recipients were pre-sensitised by sequential grafting of three 2×2 cm full thickness skin DA grafts placed to the recipient's dorsal back. The first two skin transplants were received biweekly, followed by a four week period during which alloantibody reached its peak (data not shown), followed by the placement of a third skin graft.
Seven to ten days after the third skin graft, Lewis recipients received a DA kidney graft which had been perfused with different concentrations of Compound 1 (0.1-5 μM) and either flushed or not with Soltran solution (see above).
For the recipient preparation, a midline laparotomy was performed followed by removal of the left kidney. Microaneurysm clips (Johnson & Johnson, UK) were used to clamp the renal vein and artery. The donor kidney was transplanted orthotopically in an end to end anastomosis of the renal vein, artery and ureter using 10-0 sutures (BEAR MEDIC Corp, Japan). The donor and the recipient preparations were taking place simultaneously thus eliminating any cold ischemia. At the end of warm ischemia time, which was 30 minutes, the clips were removed and blood flow was restored to the transplanted kidney. Finally, a second native nephrectomy was performed making the transplanted kidney life-sustaining.
APT070 is a 23 kDa fragment of human complement receptor type 1(CR1) described in WO 98/0245. […] The inventors assessed the effects of these agents in the RATx model as a preliminary to combination studies with Compound 1. […]

[3] = target: human thrombin (Homo sapiens, UniProt P00734); experiment: GPBC assay: compound bound to guinea pig erythrocytes against exogenous human thrombin; type: cell-based; conditions: inhibitors 1 uM at cell-binding step, normalised for cell number
Method: Method and results. Guinea Pig Blood Cells (GPBCs Harlan, UK) were extensively washed with Gelatin Veronal Buffer (GVB, Sigma G6514). A fixed volume of cell suspension (100 ul containing about 10^8 cells) was then diluted 1:1 with GVB before Compounds 1 or 2 were added; control HLL was used at the same final concentration. Cells were incubated for 10 min at ambient temperature with gentle agitation. Three washes with GVB were performed (each with at least 500 ul GVB) before discarding the supernatant and leaving cell pellet as dry as possible. Cell pellet was then resuspended with GVB and hThrombin (between 0.01 and 0.1 units) was added: reaction volume was 460 ul. Cells were incubated for 3 min at 37° C. in a waterbath and after incubation, gently pelleted by centrifugation. Supernatant (˜400 ul) was recovered and spun again to remove any residual cells. Supernatant (380 ul) was transferred to a spectrophotometer and 70 µl of GVB and 50 ul thrombin substrate (1 mM in GVB) added. The sample adsorbance was recorded at 405 nm for 20 min at 25° C.
The cell-based thrombin inhibitory capacity of Compounds 1 and 2 were compared by normalising for cell number in the GPBC assay. […] Both values result from using inhibitors at 1 uM final concentration of the compounds at the cell-binding step.

[4] = tested on: RBCs; experiment: Internalisation by 2-colour FACS on RBCs; type: cell-based
Method: To gain insight into internal versus external exposure of the compounds, cells treated with these materials were incubated with an antibody raised against hirudin (anti Hir-mAb) which cross-reacts with the HLL-1 peptide sequence. Compounds located on the outside of cells were detected by FACS using this antibody in combination with a secondary phycoerythrin (PE)-conjugated antibody, at different time points. This system enabled the ratios of externally presented compound (red PE plus green FAM fluorescence) and internalised compound (green fluorescence only) to be estimated.

[5] = Solubility observed during preparation; type: physicochemical
Method: N-myristoyl-GSSKSPSKKKKKKPGDC(S-2-thiopyridyl)-amide (containing SEQ ID NO. 4) (Smith R, Biochem. Soc. Transactions, 30: 1037-41, 2002) was prepared by solid phase synthesis. 0.1 ml of a solution of this conjugate (10 mg/ml) in DMSO was added to a solution of HLL-1 in PBS (4.8 mM, 0.2 ml). The mixture was held at 24° C. for 1 h and the concentration of 2-thiopyridine released calculated from the absorbance at 343 nm. […] After a further 30 min at 24° C., approximately 84% of the HLL peptide had reacted. The mixture was diluted to 2 ml with PBS (slight cloudiness was observed) and then concentrated using a Vivaspin 2 3 kDa cutoff PES membrane cartridge at 2500 rpm/4° C./90 min. […] Compound 3 has a theoretical molecular weight of 4403 daltons.

## CC[C@H](C)[C@H](NC(=O)[C@H](CCC(=O)O)NC(=O)[C@H](CCC(=O)O)NC(=O)[C@H](Cc1ccccc1)NC(=O)[C@H](CC(=O)O)NC(=O)CNC(=O)[C@H](CC(=O)O)NC(=O)CNC(=O)CNC(=O)CNC(=O)CNC(=O)[C@@H]1CCCN1C(=O)[C@H](CCCNC(=N)N)NC(=O)[C@@H]1CCCN1C(=O)[C@H](N)Cc1ccccc1)C(=O)N1CCC[C@H]1C(=O)N[C@@H](CCC(=O)O)C(=O)N[C@@H](CCC(=O)O)C(=O)N[C@@H](Cc1ccc(O)cc1)C(=O)N[C@@H](CC(C)C)C(=O)NCC(=O)NCC(=O)N[C@@H](CS)C(N)=O [HLL, reference compound]
[1]
  effect on cell-promoted fibrin clot formation: little inhibition of cell-mediated clotting

## Conjugate of Anticoagulant Peptide HLL-1 with 1,2-distearoyl-sn-glycero-3-phosphoethanolamine-N-[2-thiopropionyl(polyethyleneglycol)-2000] (FPRPGGGGDGDFEEIPEEYLGGC; not fully specified) [Compound 1]
[1]; cells pre-incubated with Compound 1 (50 uM) 30 min at 4° C., washed twice, re-calcified human plasma
  time for a fibrin clot to form, mean of three tubes: 172 s
[1]; cells pre-incubated with Compound 1 (50 uM) 30 min at 4° C., washed twice, re-calcified human plasma, listed as C.1
  time for a fibrin clot to form, single tube: 169 s and 172 s and 175 s
[1]
  effect on cell-promoted fibrin clot formation: inhibited this effect
[2]; donor kidney perfused with 2 uM, flushed, controls did not survive longer than 48 h
  survival after transplantation: 5 to 6 days
[2]; donor kidney perfused with 2 uM, flushed, versus control
  BUN deterioration: deterioration was significantly slower
[2]; rat, in vivo
  threshold concentration for bleeding: around 10 nM

## Conjugate of Anticoagulant Peptide HLL-1 with N-(α,ε bis-myristoyl lysine) SSKSPSKKDDKKPGDC-acid ({Myristoyl-K(myristoyl)}-SSKSPSKKDDKKPGDC-OH; also: C-terminal Cys disulfide-linked to HLL-1 peptide) [Compound 2]
[3]; 0.05 U of thrombin
  ratio Compound 2/Compound 1 for the specific cell inhibition capacity: 2.1
[3]; 0.1 U of thrombin
  ratio Compound 2/Compound 1 for the specific cell inhibition capacity: 1.3
[4]
  total labelled cells: 98%
[4]; after 1 h
  externally detected percentage: around 65%
[4]; initially
  cells red and green (compound displayed on outer cell membrane): 82%

## Conjugate of Anticoagulant Peptide HLL-1 with N-myristoyl-GSSKSPSKKKKKKPGDC(S-2-thiopyridyl)-amide (Myristoyl-GSSKSPSKKKKKKPGDC-NH2; not fully specified (residue 17); also: Cys S-2-thiopyridyl (activated form), conjugated to HLL-1 via Cys) [Compound 3]
[5]
  DMSO needed to maintain solubility: > 50 % v/v
  solubility in aqueous buffers: only limited solubility in aqueous buffers
